Source: US20100227918A1, “STREPTOMYCES-DERIVED ANTIMICROBIAL COMPOUND AND METHOD OF USING SAME AGAINST ANTIBIOTIC-RESISTANT BACTERIA” (Taro Pharmaceuticals North America, Inc., priority 2006, published 2010)

What was measured:
Candida albicans = assay: antimicrobial paper disc assay (zone of inhibition); type: cell-based; details: known antibiotic controls, zone diameters of the classes (L1)
Procedure: (§1) The antimicrobial assay was performed as described in USP (See, Molecular Cloning, A Laboratory Manual). In brief, tested microorganism strains were grown in optimal culture media for growth at the optimal growth temperature for about 16 hours with shaking. Tested plates were prepared as follows. First, base agar layer-media were prepared as per USP. The media were then autoclaved, and cooled to 48° C. Once cooled to 48° C., 20 mL of the cooled media was poured onto a sterile polystyrene petri dish. This base agar layer was further allowed to solidify for 30 minutes (agar was added as a solidifying agent). Second, seed agar layers were prepared as per USP. The media were then autoclaved, and cooled to 48° C. Once cooled to 48° C., 1 mL of tested microorganism strain (already grown for 16 hours as described in the first step above) was added to the seed agar media. The seed agar media was gently swirled to mix. Five (5) mL of the seed agar media was pipetted on top of the base agar layer. Care was taken to avoid air bubbles. This seed agar media was allowed to cool for about 15 minutes at room temperature. Plates were stored at 4° C. until needed.
(§2) Ten (10) μl of each of the concentrated supernatants (described above) were pipetted onto a sterile filter paper disc. The sterile filter paper discs were dried in air for approximately 5 minutes. The sterile filter paper discs were carefully applied onto the surface of the plates (prepared as described above). Plates holding sterile filter discs were incubated either at 37° C. (for Micrococcus luteus, E. coli, and Pseudomonas aeriginosa) or at 30° C. (for Candida albicans) for a timer period of 24 hours. Negative controls included liquid culture media. Positive controls included known antimicrobial compounds such as vancomycin (against gram-positive bacteria), tetracycline (against gram-positive/gram-negative bacteria), and amphotericin B (against yeast/fungi).
(§3) Antimicrobial Assays: 10 μl of the 10-fold concentrated supernatants from each of the six (6) isolated colony was assayed for their antimicrobial activity against the twelve (12) microorganisms as listed above. The antimicrobial assay used in the tertiary screening was similar to that used in the secondary screening. In brief, tested microorganism strains were grown in optimal culture media for growth at the optimal growth temperature for about 16 hours with shaking. Tested plates were prepared as follows. First, base agar layer-media were prepared as per USP. The media were then autoclaved, and cooled to 48° C. Once cooled to 48° C., 20 mL of the cooled media was poured onto a sterile polystyrene petri dish. This base agar layer was further allowed to solidify for 30 minutes (agar was added as a solidifying agent). Second, seed agar layers were prepared as per USP. The media were then autoclaved, and cooled to 48° C. Once cooled to 48° C., 1 mL of tested microorganism strain (already grown for 16 hours as described in the first step above) was added to the seed agar media. The seed agar media was gently swirled to mix. Five (5) mL of the seed agar media was pipetted on top of the base agar layer. Care was taken to avoid air bubbles. This seed agar media was allowed to cool for about 15 minutes at room temperature. Plates were stored at 4° C. until needed.
(§4) Ten (10) μl of each of the concentrated supernatants were pipetted onto a sterile filter paper disc. The sterile filter paper discs were dried in air for approximately 5 minutes. The sterile filter paper discs were carefully applied onto the surface of the plates. Plates holding sterile filter discs were incubated either at 37° C. (for Staphylococcus aureus, MRSA, VRSA, Enterococcus faecilis, VRE, Micrococcus luteus, E. coli, Serratia marcesens and Pseudomonas aeriginosa) or at 30° C. (for Candida albicans) for a time period of 24 hours. Negative controls included liquid culture media.

Serratia marcesens = assay: as above; type: cell-based; details: known antibiotic controls, zone diameters of the classes (L1)
Procedure: as §3
as §4, with “media. Positive controls included known antimicrobial compounds such as vancomycin (against gram-positive bacteria), tetracycline (against gram-positive/gram-negative bacteria), and amphotericin B (against yeast/fungi).” for “media.”
(§5) In general, a zone of inhibition visualized as having a diameter of about 7-10 mm is classified as “+”; a diameter of about 11-14 mm is “++”; a diameter of about 15-18 mm is “+++”; a diameter of about 19-22 mm is “++++”, and a diameter of greater than 23 mm is classified as “+++++”.
(§6) The HPLC-purified material was diluted with sterile distilled water to a concentration of 0.1 μg/mL. The diluted HPLC-purified material was assayed for antimicrobial activity using the antimicrobial assay as described above. The diluted HPLC-purified material was assayed for its antimicrobial activity against ten (10) microorganisms; namely, 1) Staphylococcus aureus; 2) methicillin-resistant Staphylococcus aureus; 3) vancomycin-resistant Staphylococcus aureus; 4) Enterococcus faecilis; 5) vancomycin-resistant Enterococcus faecilis; 6) Mycobacterium smegmatis; 7) E. coli; 8) Pseudomonas aeriginosa; 9) Serratia marcesens; and 10) Candida albicans.

Pseudomonas aeriginosa = assay: as above; type: cell-based; details: known antibiotic controls, zone diameters of the classes (L1)
Procedure: as §1, §2, §3, §4

[1] = test system: Vancomycin-Resistant Staphylococcus aureus; assay: as above; type: cell-based; details: HPLC-purified material (>99% purity) diluted to 0.1 μg/mL, zone diameters of the classes (L1)
Procedure: as §3
as §4, with “media. Positive controls included known antimicrobial compounds such as vancomycin (against gram-positive bacteria), tetracycline (against gram-positive/gram-negative bacteria), and amphotericin B (against yeast/fungi).” for “media.”
as §5, §6

[2] = test system: Vancomycin-Resistant Enterococcus faecilis; assay: as above; type: cell-based; details: HPLC-purified material (>99% purity) diluted to 0.1 μg/mL, zone diameters of the classes (L1)
Procedure: as §3
as §4, with “media. Positive controls included known antimicrobial compounds such as vancomycin (against gram-positive bacteria), tetracycline (against gram-positive/gram-negative bacteria), and amphotericin B (against yeast/fungi).” for “media.”
as §5, §6

Mycobacterium smegmatis = assay: as above; type: cell-based; details: HPLC-purified material (>99% purity) diluted to 0.1 μg/mL, known antibiotic controls, zone diameters of the classes (L1)
Procedure: as §3
as §4, with “media. Positive controls included known antimicrobial compounds such as vancomycin (against gram-positive bacteria), tetracycline (against gram-positive/gram-negative bacteria), and amphotericin B (against yeast/fungi).” for “media.”
as §5, §6

Enterococcus faecilis = assay: as above; type: cell-based; details: HPLC-purified material (>99% purity) diluted to 0.1 μg/mL, known antibiotic controls, zone diameters of the classes (L1)
Procedure: as §3
as §4, with “media. Positive controls included known antimicrobial compounds such as vancomycin (against gram-positive bacteria), tetracycline (against gram-positive/gram-negative bacteria), and amphotericin B (against yeast/fungi).” for “media.”
as §5, §6

[3] = test system: Methicillin-Resistant Staphylococcus aureus; assay: as above; type: cell-based; details: HPLC-purified material (>99% purity) diluted to 0.1 μg/mL, known antibiotic controls, zone diameters of the classes (L1)
Procedure: (§7) Ten (10) μl of each of the concentrated supernatants were pipetted onto a sterile filter paper disc. The sterile filter paper discs were dried in air for approximately 5 minutes. The sterile filter paper discs were carefully applied onto the surface of the plates. Plates holding sterile filter discs were incubated either at 37° C. […]

Staphylococcus aureus = assay: as above; type: cell-based; details: HPLC-purified material (>99% purity) diluted to 0.1 μg/mL, known antibiotic controls, zone diameters of the classes (L1)
Procedure: as §7

Mycobacteria smegmatis = details: Journal of Antibiotics 29(7), 756-8; cited from earlier work
E. coli = assay: antimicrobial paper disc assay (zone of inhibition); type: cell-based; details: known antibiotic controls, zone diameters of the classes (L1)
Procedure: as §1, §2, §3, §4

[4] = test system: penicillin-resistant Staphylococcus; details: prior art; cited from earlier work
[5] = test system: some gram-positive bacteria (such as Staphylococcus and Streptococcus); details: prior art, U.S. Pat. No. 3,966,913 and Japanese patents; cited from earlier work
[6] = test system: methicillin or vancomycin resistant gram-positive bacteria; details: prior art; cited from earlier work
[7] = HPLC-purified material (>99% purity) diluted to 0.1 μg/mL, paper disc assay
[8] = tertiary screening, 10 μl of 10-fold concentrated supernatant on paper disc, 37° C., 24 hours

For `C[C@@H]1[C@H](O)[C@@H](C)/C=C/C=C/C=C/C=C/C=C/C=C/C=C/[C@H](O[C@@H]2O[C@H](C)[C@@H](O)[C@H](N)[C@@H]2O)C[C@@H]2O[C@](O)(C[C@@H](O)C[C@@H](O)[C@H](O)CC[C@@H](O)C[C@@H](O)CC(=O)O[C@H]1C)C[C@H](O)[C@H]2C(=O)O` [amphotericin B], the “Antimicrobial Activity (zone of inhibition), Candida albicans” value (Candida albicans; [7]) was “amphotericin B (+++++)” and the “Antimicrobial Activity (zone of inhibition), Candida albicans” value (Candida albicans; tertiary screening, 10 μl of 10-fold concentrated supernatant on paper disc, 30° C., 24 hours) was “amphotericin B (+++++)”.

In the case of gentamicin, the “Antimicrobial Activity (zone of inhibition), Serratia marcesens” value (Serratia marcesens; [7]) is reported as “gentamicin (+++++)”, the “Antimicrobial Activity (zone of inhibition), Serratia marcesens” value (Serratia marcesens; [8]) is reported as “gentamicin (+++++)” and the “Antimicrobial Activity (zone of inhibition), Pseudomonas aeriginosa” value (Pseudomonas aeriginosa; [7]) is reported as “gentamicin (+++++)”. The “Antimicrobial Activity (zone of inhibition), Pseudomonas aeriginosa” value (Pseudomonas aeriginosa; [8]) was “gentamicin (+++++)”.

With `CC1OC2CC(=O)OC2C2=C1C(=O)c1c(ccc(C3CC(N(C)C)C(O)C(C)O3)c1O)C2=O` [Purified Lactoquinomycin, 2H-Furo[3,2-b]naphtho[2,3-d]pyran-2,6,11-trione,3,3a,5,11b-tetrahydro-7-hydroxy-5-methyl-8-[2,3,6-trideoxy-3-(dimethylamino)-β-D-arabino-hexopyranosyl]-,(3aR,5R,11bR)] the “Antimicrobial Activity (zone of inhibition), Vancomycin-Resistant Staphylococcus aureus” value [1] was “+++++”, the “Antimicrobial Activity (zone of inhibition), Vancomycin-Resistant Enterococcus faecilis” value [2] was “+++” and the “Antimicrobial Activity (zone of inhibition), Serratia marcesens” value (Serratia marcesens; [7]) was “−”. For the same molecule, the “Antimicrobial Activity (zone of inhibition), Mycobacterium smegmatis” value (Mycobacterium smegmatis) was “+++++”, the “Antimicrobial Activity (zone of inhibition), Enterococcus faecilis” value (Enterococcus faecilis) was “+++” and the “Antimicrobial Activity (zone of inhibition), Methicillin-Resistant Staphylococcus aureus” value [3] was “+++++”. The “Antimicrobial Activity (zone of inhibition), Staphylococcus aureus” value (Staphylococcus aureus) was “+++++”, the “antimicrobial activity against mycobacteria (i.e. Mycobacteria smegmatis)” value (Mycobacteria smegmatis) was “no antimicrobial activity” and the “Antimicrobial Activity (zone of inhibition), Pseudomonas aeriginosa” value (Pseudomonas aeriginosa; [7]) was “−”. For the same molecule, the “Antimicrobial Activity (zone of inhibition), Candida albicans” value (Candida albicans; [7]) was “−” and the “Antimicrobial Activity (zone of inhibition), E. coli” value (E. coli; [7]) was “−”.

With `CN(C)[C@@H]1C(O)=C(C(N)=O)C(=O)[C@@]2(O)C(O)=C3C(=O)c4c(O)cccc4[C@@](C)(O)[C@H]3C[C@@H]12` [tetracycline] the “Antimicrobial Activity (zone of inhibition), E. coli” value (E. coli; [7]) was “tetracycline (+++++)” and the “Antimicrobial Activity (zone of inhibition), E. coli” value (E. coli; [8]) was “tetracycline (+++++)”.

In the case of `CC1OC2CC(=O)OC2C2=C1C(=O)c1c(ccc(C3CC(N(C)C)C(O)C(C)O3)c1O)C2=O` (stereo not shown) [Lactoquinomycin A], the “antimicrobial activity against certain penicillin-resistant Staphylococcus” value [4] is listed as “exert an antimicrobial activity”, the “antimicrobial activity against some gram-positive bacteria (such as Staphylococcus and Streptococcus)” value [5] is listed as “exert an antimicrobial activity” and the “antimicrobial activity against methicillin or vancomycin resistant gram-positive bacteria” value [6] is listed as “no antimicrobial activity”.
